Reference: ChEMBL document CHEMBL5244273, “Tuberculosis: An Overview of the Immunogenic Response, Disease Progression, and Medicinal Chemistry Efforts in the Last Decade toward the Development of Potential Drugs for Extensively Drug-Resistant Tuberculosis Strains” (J Med Chem, 2021)
≈ marks a conversion by molar mass, not a printed value.

Key:
[1] = test system: Mycobacterium tuberculosis; test: Antimycobacterial activity against rifampicin resistant Mycobacterium tuberculosis by broth dilution method; format: functional
[2] = test system: Mycobacterium tuberculosis; test: Antimycobacterial activity against isoniazid, rifampicin, amikacin and moxifloxacin resistant Mycobacterium tuberculosis by broth dilution method; format: functional
[3] = test system: Mycobacterium tuberculosis; test: Antimycobacterial activity against isoniazid and rifampicin resistant Mycobacterium tuberculosis by broth dilution method; format: functional
[4] = test system: Mycobacterium tuberculosis; test: Antimycobacterial activity against extensively drug resistant Mycobacterium tuberculosis H37Rv; format: functional
[5] = test system: Mycobacterium tuberculosis; test: Antimycobacterial activity against multidrug resistant Mycobacterium tuberculosis H37Rv; format: functional
[6] = test system: Mycobacterium tuberculosis; test: Potentiation of ethionamide induced antibacterial activity against Mycobacterium tuberculosis W4-E1 harboring EthA Gly343Ala mutant expressing GFP incubated for 5 days by fluorescence based analysis; format: functional, organism-based

C[C@]1(Cn2cc(COc3ccc(OC(F)(F)F)cc3)nn2)Cn2cc([N+](=O)[O-])nc2O1
MIC [1]: 2 µg/mL (≈ 4.54 µM) | MIC [2]: 2 µg/mL (≈ 4.54 µM) | MIC [3]: 2 µg/mL (≈ 4.54 µM)

Cc1ccc(OCc2cn(C[C@@]3(C)Cn4cc([N+](=O)[O-])nc4O3)nn2)cc1
MIC [1]: 8 µg/mL (≈ 21.6 µM) | MIC [2]: 8 µg/mL (≈ 21.6 µM) | MIC [3]: 2 µg/mL (≈ 5.4 µM)

CC(=O)N1N=C(c2ccc3oc(S)nc3c2)CC1c1cccs1 (configuration not stated)
MIC [4]: > 100 µg/mL | MIC [5]: 25 µg/mL (≈ 72.8 µM)

COc1ccc(C2CCN(C(=O)CCC(F)(F)F)CC2)cn1
EC50 [6]: < 1.3 µM

C[C@]1(Cn2cc(COc3ccc(Br)cc3)nn2)Cn2cc([N+](=O)[O-])nc2O1
MIC [1]: 0.12 µg/mL (≈ 0.276 µM) | MIC [2]: 0.25 µg/mL (≈ 0.574 µM) | MIC [3]: 0.12 µg/mL (≈ 0.276 µM)

CC(C)COC1=NOC2(CCN(C(=O)CCC(F)(F)F)CC2)C1
EC50 [6]: < 0.14 µM

O=C(CCC(F)(F)F)N1CCC2(CC1)CC(Br)=NO2
EC50 [6]: < 0.14 µM

C[C@]1(Cn2cc(-c3ccc(OC(F)(F)F)cc3)nn2)Cn2cc([N+](=O)[O-])nc2O1
MIC [1]: 2 µg/mL (≈ 4.87 µM) | MIC [2]: 1 µg/mL (≈ 2.44 µM) | MIC [3]: 2 µg/mL (≈ 4.87 µM)

O=C(CCC(F)(F)F)N1CCC(F)(c2ccc(F)nc2)CC1
EC50 [6]: < 1.3 µM

O=C(CCC(F)(F)F)N1CCC(c2cncc(Cl)c2)CC1
EC50 [6]: < 1.3 µM

O=C(CCC(F)(F)F)N1CCC(F)(c2cncc(Cl)c2)CC1
EC50 [6]: < 1.3 µM

O=C(CCC(F)(F)F)N1CCC(c2cncc(C(F)(F)F)n2)CC1
EC50 [6]: < 1.3 µM

Cc1ccc(OCCc2cn(C[C@@]3(C)Cn4cc([N+](=O)[O-])nc4O3)nn2)cc1
MIC [1]: 1 µg/mL (≈ 2.6 µM) | MIC [2]: 0.25 µg/mL (≈ 0.65 µM) | MIC [3]: 0.25 µg/mL (≈ 0.65 µM)

C[C@]1(Cn2cc(-c3ccc(F)cc3F)nn2)Cn2cc([N+](=O)[O-])nc2O1
MIC [1]: 4 µg/mL (≈ 11 µM) | MIC [2]: 4 µg/mL (≈ 11 µM) | MIC [3]: 1 µg/mL (≈ 2.76 µM)

NC(=O)N1N=C(c2ccc3oc(N)nc3c2)CC1c1cccs1 (configuration not stated)
MIC [4]: 50 µg/mL (≈ 153 µM) | MIC [5]: 12.5 µg/mL (≈ 38.2 µM)

O=C(CCC(F)(F)F)N1CCC(c2cccc(C(F)(F)F)n2)CC1
EC50 [6]: < 1.3 µM

O=C(CCC(F)(F)F)N1CCC(c2cnc(F)c(F)c2)CC1
EC50 [6]: < 1.3 µM

O=C(CCC(F)(F)F)N1CCC(F)(c2ccnc(C(F)(F)F)c2)CC1
EC50 [6]: < 1.3 µM

Cc1cc(C2CCN(C(=O)CCC(F)(F)F)CC2)ccn1
EC50 [6]: < 1.3 µM

CCc1ccc(OCc2cn(C[C@@]3(C)Cn4cc([N+](=O)[O-])nc4O3)nn2)cc1
MIC [1]: 4 µg/mL (≈ 10.4 µM) | MIC [2]: 4 µg/mL (≈ 10.4 µM) | MIC [3]: 2 µg/mL (≈ 5.2 µM)

C[C@]1(Cn2cc(COc3ccccn3)nn2)Cn2cc([N+](=O)[O-])nc2O1
MIC [1]: 0.5 µg/mL (≈ 1.4 µM) | MIC [2]: 0.5 µg/mL (≈ 1.4 µM) | MIC [3]: 0.25 µg/mL (≈ 0.7 µM)

CCCCCc1cn(C[C@@]2(C)Cn3cc([N+](=O)[O-])nc3O2)nn1
MIC [1]: 8 µg/mL (≈ 25 µM) | MIC [2]: 8 µg/mL (≈ 25 µM) | MIC [3]: 2 µg/mL (≈ 6.24 µM)

N#CC1=NOC2(CCN(C(=O)CCC(F)(F)F)CC2)C1
EC50 [6]: < 0.14 µM

O=C(CCC(F)(F)F)N1CCC(c2ccc(F)cn2)CC1
EC50 [6]: < 1.3 µM

O=C(CCC(F)(F)F)N1CCC(F)(c2cccnc2)CC1
EC50 [6]: < 1.3 µM

O=C(CCC(F)(F)F)N1CCC(F)(c2ccccn2)CC1
EC50 [6]: < 1.3 µM

CC(=O)N1N=C(c2ccc3oc(NC(=O)CCl)nc3c2)CC1c1cccs1 (configuration not stated)
MIC [4]: 12.5 µg/mL (≈ 31 µM) | MIC [5]: 3.12 µg/mL (≈ 7.74 µM)

O=C(CCC(F)(F)F)N1CCC(F)(c2cc(C(F)(F)F)ccn2)CC1
EC50 [6]: < 1.3 µM

O=C(CCC(F)(F)F)N1CCC2(CC1)CC(OCC(F)(F)F)=NO2
EC50 [6]: < 0.14 µM

CC1=NOC2(CCN(C(=O)CCC(F)(F)F)CC2)C1
EC50 [6]: < 0.14 µM

O=C(CCC(F)(F)F)N1CCC(c2ccnc(F)c2)CC1
EC50 [6]: < 1.3 µM

CC(=O)N1N=C(c2ccc3oc(NC(=O)c4ccccc4)nc3c2)CC1c1cccs1 (configuration not stated)
MIC [4]: 50 µg/mL (≈ 116 µM) | MIC [5]: 12.5 µg/mL (≈ 29 µM)

O=C(CCC(F)(F)F)N1CCC(c2cccc(Cl)n2)CC1
EC50 [6]: < 1.3 µM

O=C(CCC(F)(F)F)N1CCC(c2cccc(F)n2)CC1
EC50 [6]: < 1.3 µM

O=C(CCC(F)(F)F)N1CCC(c2cncc(F)c2)CC1
EC50 [6]: < 1.3 µM

O=C(CCC(F)(F)F)N1CCC(c2ncc(F)cc2F)CC1
EC50 [6]: < 1.3 µM

C[C@]1(Cn2cc(COc3cccc(Cl)c3)nn2)Cn2cc([N+](=O)[O-])nc2O1
MIC [1]: 2 µg/mL (≈ 5.12 µM) | MIC [2]: 4 µg/mL (≈ 10.2 µM) | MIC [3]: 2 µg/mL (≈ 5.12 µM)

O=C(CCC(F)(F)F)N1CC(c2cccc(Cl)c2)C1
EC50 [6]: < 0.075 µM

Cc1ccccc1OCc1cn(C[C@@]2(C)Cn3cc([N+](=O)[O-])nc3O2)nn1
MIC [1]: 1 µg/mL (≈ 2.7 µM) | MIC [2]: 1 µg/mL (≈ 2.7 µM) | MIC [3]: 1 µg/mL (≈ 2.7 µM)

C[C@]1(Cn2cc(COc3ccc(C(F)(F)F)cc3)nn2)Cn2cc([N+](=O)[O-])nc2O1
MIC [1]: 4 µg/mL (≈ 9.43 µM) | MIC [2]: 4 µg/mL (≈ 9.43 µM) | MIC [3]: 4 µg/mL (≈ 9.43 µM)

O=C(CCC(F)(F)F)N1CCC(c2cncc(Cl)n2)CC1
EC50 [6]: < 1.3 µM

O=C(CCC(F)(F)F)N1CC(C2CCCCC2)C1
EC50 [6]: < 0.075 µM

O=C(CCC(F)(F)F)N1CCC(c2cncc(Cl)c2)C1 (configuration not stated)
EC50 [6]: < 1.3 µM

C[C@]1(Cn2cc(-c3ccc(Oc4ccccc4)cc3)nn2)Cn2cc([N+](=O)[O-])nc2O1
MIC [1]: 1 µg/mL (≈ 2.39 µM) | MIC [2]: 1 µg/mL (≈ 2.39 µM) | MIC [3]: 1 µg/mL (≈ 2.39 µM)

O=C(CCC(F)(F)F)N1CCC2(CC1)CC(F)=NO2
EC50 [6]: < 0.14 µM

O=C(CCC(F)(F)F)N1CCC(F)(c2cncc(C(F)(F)F)c2)CC1
EC50 [6]: < 1.3 µM

C[C@]1(Cn2cc(CN3CCOCC3)nn2)Cn2cc([N+](=O)[O-])nc2O1
MIC [1]: 2 µg/mL (≈ 5.72 µM) | MIC [2]: 2 µg/mL (≈ 5.72 µM) | MIC [3]: 2 µg/mL (≈ 5.72 µM)

O=C(CCC(F)(F)F)N1CCC(c2cncc(C(F)(F)F)c2)CC1
EC50 [6]: < 1.3 µM

O=C(CCC(F)(F)F)N1CCC(F)(c2ccnc(F)c2)CC1
EC50 [6]: < 1.3 µM

O=C(CCC(F)(F)F)N1CCC(c2ccnc(Cl)c2)CC1
EC50 [6]: < 1.3 µM

O=C(CCC(F)(F)F)N1CCC(F)(c2ccnc(Cl)c2)CC1
EC50 [6]: < 1.3 µM

O=C(CCC(F)(F)F)N1CCC(c2ccc(F)nc2F)CC1
EC50 [6]: < 1.3 µM

O=C(CCC(F)(F)F)N1CCC(c2ccncc2F)CC1
EC50 [6]: < 1.3 µM

O=C(CCCl)N1CCC2(CC1)CC(C(F)(F)F)=NO2
EC50 [6]: < 0.14 µM

CCOC1=NOC2(CCN(C(=O)CCC(F)(F)F)CC2)C1
EC50 [6]: < 0.14 µM

CC(=O)N1N=C(c2ccc3oc(-c4ccc(O)cc4)nc3c2)CC1c1cccs1 (configuration not stated)
MIC [4]: 12.5 µg/mL (≈ 31 µM) | MIC [5]: 3.12 µg/mL (≈ 7.73 µM)

C[C@]1(Cn2cc(COc3ccccc3F)nn2)Cn2cc([N+](=O)[O-])nc2O1
MIC [1]: 1 µg/mL (≈ 2.67 µM) | MIC [2]: 1 µg/mL (≈ 2.67 µM) | MIC [3]: 0.5 µg/mL (≈ 1.34 µM)

COc1cccc(C(=O)Nc2nc3cc(C4=NN(C(C)=O)C(c5cccs5)C4)ccc3o2)c1 (configuration not stated)
MIC [4]: 12.5 µg/mL (≈ 27.1 µM) | MIC [5]: 3.12 µg/mL (≈ 6.78 µM)

CC(C)c1ccc(OCc2cn(C[C@@]3(C)Cn4cc([N+](=O)[O-])nc4O3)nn2)cc1
MIC [1]: 2 µg/mL (≈ 5.02 µM) | MIC [2]: 4 µg/mL (≈ 10 µM) | MIC [3]: 1 µg/mL (≈ 2.51 µM)

CCC1=NOC2(CCN(C(=O)CCC(F)(F)F)CC2)C1
EC50 [6]: < 0.14 µM

O=C(CCC(F)(F)F)N1CC(c2ccc(F)cc2F)C1
EC50 [6]: < 0.075 µM

CCCCCCOC1=NOC2(CCN(C(=O)CCC(F)(F)F)CC2)C1
EC50 [6]: < 0.14 µM

O=C(CCC(F)(F)F)N1CCC(c2cc(C(F)(F)F)ccn2)CC1
EC50 [6]: < 1.3 µM

O=C(CCC(F)(F)F)N1CCC(c2ccnc(C(F)(F)F)c2)CC1
EC50 [6]: < 1.3 µM

O=C(CCC(F)(F)F)N1CC(c2cc(F)c(F)c(F)c2)C1
EC50 [6]: < 0.075 µM

COC1=NOC2(CCN(C(=O)CCCl)CC2)C1
EC50 [6]: < 0.14 µM

Cc1ccc(SCc2cn(C[C@@]3(C)Cn4cc([N+](=O)[O-])nc4O3)nn2)cc1
MIC [1]: 0.25 µg/mL (≈ 0.647 µM) | MIC [2]: 2 µg/mL (≈ 5.18 µM) | MIC [3]: 0.5 µg/mL (≈ 1.29 µM)

C[C@]1(Cn2cc(-c3ccc(C(F)(F)F)cc3)nn2)Cn2cc([N+](=O)[O-])nc2O1
MIC [1]: 4 µg/mL (≈ 10.1 µM) | MIC [2]: 2 µg/mL (≈ 5.07 µM) | MIC [3]: 2 µg/mL (≈ 5.07 µM)

CCCOC1=NOC2(CCN(C(=O)CCC(F)(F)F)CC2)C1
EC50 [6]: < 0.14 µM

CC(=O)N1N=C(c2ccc3oc(N)nc3c2)CC1c1cccs1 (configuration not stated)
MIC [4]: 25 µg/mL (≈ 76.6 µM) | MIC [5]: 6.25 µg/mL (≈ 19.1 µM)

Cc1cc(-c2cn(C[C@@]3(C)Cn4cc([N+](=O)[O-])nc4O3)nn2)ccc1F
MIC [1]: 1 µg/mL (≈ 2.79 µM) | MIC [2]: 2 µg/mL (≈ 5.58 µM) | MIC [3]: 4 µg/mL (≈ 11.2 µM)

C[C@]1(Cn2cc(COc3cccc(F)c3)nn2)Cn2cc([N+](=O)[O-])nc2O1
MIC [1]: 2 µg/mL (≈ 5.34 µM) | MIC [2]: 2 µg/mL (≈ 5.34 µM) | MIC [3]: 2 µg/mL (≈ 5.34 µM)

Cc1cccc(OCc2cn(C[C@@]3(C)Cn4cc([N+](=O)[O-])nc4O3)nn2)c1
MIC [1]: 1 µg/mL (≈ 2.7 µM) | MIC [2]: 2 µg/mL (≈ 5.4 µM) | MIC [3]: 1 µg/mL (≈ 2.7 µM)

O=C(CCC(F)(F)F)N1CCC(c2ccc(F)nc2)CC1
EC50 [6]: < 1.3 µM

O=C(CCCC(F)(F)F)N1CCC(c2cncc(Cl)c2)CC1
EC50 [6]: < 1.3 µM

C[C@]1(Cn2cc(-c3ccc(F)cc3)nn2)Cn2cc([N+](=O)[O-])nc2O1
MIC [1]: 2 µg/mL (≈ 5.81 µM) | MIC [2]: 2 µg/mL (≈ 5.81 µM) | MIC [3]: 2 µg/mL (≈ 5.81 µM)
